Consider five compounds from patent US10220024B2, “Method of inhibiting cancer cell, method for detecting cancer cell, and system for detecting cancer cell” (CANON KABUSHIKI KAISHA, priority 2012, dated 2019).

The subject of series [1] is K562 ALDH (+) fraction (cancer stem cells). In words: Cancer stem-cell selective inhibitory action against chronic myelocytic leukemia cells, ALDH (+) fraction, CellTiter-Glo. It is filed as cell-based. Particulars: Homo sapiens, 10 μg/ml, 24 hours. As for the experimental part: (§1) Human chronic myelocytic leukemia cells, K562, were pre-cultured in RPMI1640 medium containing 10% FBS at 37° C. in a 5% CO2 ambient. Then, a fraction containing 80% or more of cancer stem cells was extracted by use of ALDEFLUOR reagent (manufactured by VERITAS Corporation) and FACSAria flow cytometry (manufactured by Nippon Becton, Dickinson and Company). Subsequently, Compound (5) was added to the medium so as to obtain a final concentration of 10 μg/mL and cultured at 37° C. for 24 hours in a 5% CO2 ambient. The cultured cells were analyzed for viable cell count according to CellTiter-Glo Luminescent Cell Viability Assay (manufactured by Promega KK.). As a reference, the number of cells cultured in a medium containing a 0.1% dimethylsulfoxide solution (hereinafter, simply referred to as DMSO) in place of a medium containing Compound (1), in the aforementioned operation, was used as 0.1. Note that hereinafter, an ALDEFLUOR reagent positive fraction (deemed as cancer stem cells) is represented by ALDH (+), whereas an ALDEFLUOR reagent negative fraction (not deemed as cancer stem cells) is represented by ALDH (−), in some cases.
(§2) The same operation as in Experimental Example 12 was repeated except that Compound (5) in Experimental Example 12 was changed to the compounds shown in Table 4 and final concentrations shown in Table 4 were used and viable cell counts were separately analyzed. Note that the growth rate in Examples herein is a numerical value of the number of cells obtained after culture relative to the number of cells (regarded as 0.1) grown in a medium containing 0.1% DMSO.
(§3) The same operation as in Experimental Example 12 was repeated except that Compound (5) in Experimental Example 12 was changed to Imatinib (manufactured by NOVARTIS), which is a general anticancer drug, and comparative compounds shown in Table 4 and final concentrations shown in Table 4 were used and viable cell counts were separately analyzed.
(§4) The growth suppressive effect of cancer stem cells was evaluated based on the following criteria. Note that the growth rate in Examples herein is a numerical value relative to the number of cells (regarded as 0.1) grown in a medium containing 0.1% DMSO. • A: The value of ALDH (+) is less than 0.5 (growth suppressive effect against cancer stem cells is extremely high) • B: The value of ALDH (+) is 0.5 or more and less than 0.95 (growth suppressive effect against cancer stem cells is high) • C: The value of ALDH (+) is 0.95 or more (no growth suppressive effect against cancer stem cells)
(§5) Furthermore, superiority of cancer stem cells was evaluated by comparing cancer stem cells to cancer cells based on the following criteria. ALDH (+) represents cancer stem cells; whereas ALDH (−) represents general cancer cells. • A: The value of ALDH (+)/ALDH (−) is less than 0.8 (selective inhibitory effect against cancer stem cells is extremely high) • B: The value of ALDH (+)/ALDH (−) is 0.8 or more and less than 0.95 (selective inhibitory effect against cancer stem cells is high) • C: The value of ALDH (+)/ALDH (−) is 0.95 or more (no selective inhibitory effect against cancer stem cells)

Series [2] relates to K562 ALDH (−) fraction (general cancer cells). The series can be described thus: Cancer stem-cell selective inhibitory action against chronic myelocytic leukemia cells, ALDH (−) fraction, CellTiter-Glo. It is filed as cell-based, Human. Particulars: Homo sapiens, 10 μg/ml, 24 hours, relative to 0.1% DMSO, read-out: ALDH(−) (growth rate). Here is the method:
as §1, §2, §3, §4, §5
(In general: In ATP-based viability assays light output follows the ATP content of the culture.)

Series [3] in a line: Measurement of fluorescent property of compound (spectrofluorometer). It is filed as physicochemical. Particulars: 5 μM DMSO solution. Here is the method: The excitation wavelength and fluorescence wavelength of the compound were measured by a FL4500 spectrofluorometric measuring machine manufactured by Hitachi High-Technologies Corporation.
For series [4], the system named is Prostatic cancer cells, PC-3. In words: Cancer cell inhibitory (growth suppressive) action against prostatic cancer cells, CellTiter-Glo viable cell count. Particulars: PC-3, 10 μg/mL, 24 hours. It is filed as cell-based. Here is the method: (§6) Prostatic cancer cells, PC-3, were pre-cultured in RPMI1640 medium containing 10% FBS at 37° C. in a 5% CO2 ambient. Thereafter, 4,000 cells were seeded per well of a 96-well plate and further cultured for 24 hours. Subsequently, Compound (11) was added to the medium so as to obtain a final concentration of 10 μg/mL and cultured at 37° C. for 24 hours in a 5% CO2 ambient. The cultured cells were analyzed for viable cell count according to CellTiter-Glo Luminescent Cell Viability Assay (manufactured by Promega KK.). As a reference, the number of cells cultured in a medium containing a 0.1% dimethylsulfoxide solution (hereinafter, simply referred to as DMSO) in place of a medium containing Compound (11), in the aforementioned operation, was used as 100.
Viable cell count was analyzed in the same manner as in Experimental Example 8 except that the compounds shown in Table 3 were used in place of Compound (11) of Experimental Example 8.
Viable cell count was analyzed in the same manner as in Experimental Example 8 except that comparative compounds 1 to 4 were used in place of Compound (11) of Experimental Example 8.
The growth rate in Examples herein is a numerical value of the number of cells obtained after culture relative to the number of cells (regarded as 100) grown in a medium containing 0.1% DMSO.
Evaluation of cancer cell inhibition against the prostatic cancer cells (PC-3) was made as follows. • A: Cancer cell growth rate is less than 20% (cancer cell inhibitory (growth suppressive) effect is extremely high) • B: Cancer cell growth rate is 20% or more and less than 50% (cancer cell inhibitory (growth suppressive) effect is high) • C: Cancer cell growth rate is 50% or more (cancer cell inhibitory (growth suppressive) effect is low)

Series [5] concerns Human pancreas cancer cells, KLM-1. In words: Cancer cell inhibitory (growth suppressive) action against pancreatic cancer cells, CellTiter-Glo viable cell count. It is filed as cell-based. Particulars: KLM1, KLM-1, 10 μg/mL, 24 hours. As for the experimental part: as §6, with “Observation on cancer cell inhibitory (growth suppressive) action against pancreatic cancer cells Human pancreas” for “Prostatic”, “KLM-1,” for “PC-3,”, “(1)” for “(11)”, “(1),” for “(11),”, “regarded (100%).” for “used as 100.”
Viable cell count was analyzed in the same manner as in Experimental Example 1 except that Compound (1) of Experimental Example 1 was changed to compounds shown in Table 2.
Viable cell count was analyzed in the same manner as in Experimental Example 1 except that Compound (1) was changed to comparative compounds 1 to 4.
Viable cell counts of Experimental Examples 1 to 7 and Comparative Examples 1 to 4 were analyzed to obtain growth rates.
Evaluation of cancer cell inhibition against the pancreatic cancer cells (KLM-1) (growth suppression) was made based on the following criteria. Note that the growth rate in Examples herein is a numerical value of the number of cells obtained after culture relative to the number of cells (regarded as 100) grown in a medium containing 0.1% DMSO. Evaluation of cancer cell inhibition against the pancreatic cancer cells (KLM-1) was made as follows. • A: Cancer cell growth rate is less than 20% (cancer cell inhibitory (growth suppressive) effect is extremely high) • B: Cancer cell growth rate is 20% or more and less than 50% (cancer cell inhibitory (growth suppressive) effect is high) • C: Cancer cell growth rate is 50% or more (cancer cell inhibitory (growth suppressive) effect is low)

In series [6] the test system is K562-BFP human chronic myelocytic leukemia cells transplanted to zebra young fish. In words: Cancer metastasis suppressive effect in metastatic foci of cancer cells transplanted to zebra young fish. It is filed as in vivo. Particulars: metastatic foci (region within 300 to 450 μm from a transplanted tumor). The source says:
From cell strain K562-BFP, which is a strain of human chronic myelocytic leukemia cells having fluorescent protein TagBFP constantly expressed, a fraction (ALDH (+)) containing 80% or more of cancer stem cells was extracted by use of a cancer stem cell marker, ALDEFLUOR reagent (manufactured by VERITAS Corporation) and FACSAria flow cytometry (manufactured by Nippon Becton, Dickinson and Company). The ALDH (+) fraction and a ALDH (−) fraction of general cancer cells were transplanted separately to zebra young fish (MieKomachi lineage, 2 days after fertilization) and the fish were raised in a 32° C. environment. Furthermore, 24 hours after transplantation, Compound (16) was added to breeding water so as to obtain a final concentration of […] and fish were raised for two days in a 32° C. environment. Cells transplanted to the zebra young fish were observed under MZ16F fluorescent stereoscopic microscope (manufactured by Leica Microsystems) and a fluorescent image of the cells after 24 hours was photographed and then fluorescent intensity was quantified.
As a reference, the fluorescent intensity of cells, which were cultured in the same operation method as above in a medium containing a 0.1% DMSO solution in place of Compound (16), was used.
Fluorescent images were photographed in the same manner as in Experimental Example 29 except that Imatinib and Dasatinib were respectively used in place of the compound (16) in Experimental Example 29.
The inhibition rate herein was obtained according to the expression: 100×(1-F1/F0), where the fluorescent intensity of cells when a test substance was added is represented by F1, and the fluorescent intensity of cells when a reference substance (DMSO) was added is represented by F0.
The growth suppressive effect in metastatic foci (region within 300 to 450 μm from a transplanted tumor) of cancer stem cells was evaluated based on the following criteria. • A: Inhibition rate is 70 or more (growth suppressive effect against metastatic foci (region within 300 to 450 μm from a transplanted tumor) of cancer stem cells is extremely high) • B: Inhibition rate is 50 or more and less than 70 (growth suppressive effect against metastatic foci (region within 300 to 450 μm from a transplanted tumor) of cancer stem cells is high) • C: Inhibition rate is less than 50 (growth suppressive effect against metastatic foci (region within 300 to 450 μm from a transplanted tumor) of cancer stem cells is low)

Setting [7] is: read-out: Growth suppression evaluated.
[8] abbreviates: relative to 0.1% DMSO, read-out: ALDH(+) (growth rate).
[9] abbreviates: read-out: Evaluation (cancer cell growth rate).
Setting [10] is: relative to 0.1% DMSO (100), read-out: Cancer cell growth rate (%).

Each structure is given as a SMILES string. Like-named read-outs stand apart in the source and are kept apart here.

As for `CC[N+]1=C(/C=c2\s/c(=C/c3ccc4c(c3)C3CCCC3N4c3ccccc3)c(=O)n2CC(=O)O)C(C)(C)c2ccccc21` (stereo not drawn) [Compound 15], the activity at 10 µg/mL in series [1] (setting [7]) is under 50%; in series [1] (setting [8]) it was 21%; in series [2] it was 26%; in series [4] (setting [9]), under 20%; in series [4] (setting [10]) it was 7.1%; in series [5] (setting [9]), under 20%. In addition, the activity at 10 µg/mL in series [5] (setting [10]) worked out at 9%. Besides, in series [3], the Excitation wavelength λex came out at 568 nm. Also, in series [3], the Fluorescence wavelength λem came out at 643 nm.

`CCn1c2ccccc2c2cc(/C=c3/s/c(=C\C4=[N+](CC)c5ccccc5C4(C)C)n(CC(=O)O)c3=O)ccc21` [Compound 20]: the activity at 10 µg/mL in series [1] (setting [7]) is under 50%; in series [1] (setting [8]), 14%; in series [2], 25%; in series [4] (setting [9]), under 20%; in series [4] (setting [10]), 4.8%; in series [5] (setting [9]), 20 to 50%. The activity at 10 µg/mL in series [5] (setting [10]) turned out to be 22.3%. In series [3], this compound returned an Excitation wavelength λex of 493 nm. In series [3], the Fluorescence wavelength λem turned out to be 585 nm.

For `CCC[N+]1=C(/C=C/C=C/c2ccc(N(C)C)cc2)C(C)(C)c2ccccc21` [Compound 26], the Excitation wavelength λex in series [3] was determined as 609 nm. The Fluorescence wavelength λem in series [3] turned out to be 692 nm. Further, the activity at 10 µg/mL in series [4] (setting [9]) was under 20%; in series [4] (setting [10]), 5.8%; in series [5] (setting [9]), under 20%; in series [5] (setting [10]), 8.9%.

For the compound `Cc1nc(Nc2ncc(C(=O)Nc3c(C)cccc3Cl)s2)cc(N2CCN(CCO)CC2)n1` [Dasatinib], the “Evaluation (inhibition rate in metastatic foci)” value in series [6] (0.5 μm in breeding water) is reported as “C (Inhibition rate is less than 50)”. The compound also came in with an Inhibition rate in series [6] (final concentration of 0.5 μm in breeding water, 100×(1-F1/F0) versus DMSO) of 36.

With `CCn1c2ccccc2c2cc(/C=C3/SC(=S)N(CC(=O)O)C3=O)ccc21` [compound 4, reference compound], the activity at 10 µg/mL was at least 50% in series [4] (setting [9]), 99.9% in series [4] (setting [10]), at least 50% in series [5] (setting [9]) and 100% in series [5] (setting [10]).
